According to publication doi:10.1101/2025.01.30.635627v1 (biorxiv, 2025):

Tests used:
EEF1A2 = biological target: T1, EEF1A2 (Homo sapiens, UniProt Q05639); test: decryptC competitive reactive cysteine profiling in intact cells, LC-MS/MS; type: cell-based; settings: covalent; C31; […] h incubation; range over MiaPaCa-2, NCI-H23 and ASPC1 cells
T1 sequence (Q05639 2-463): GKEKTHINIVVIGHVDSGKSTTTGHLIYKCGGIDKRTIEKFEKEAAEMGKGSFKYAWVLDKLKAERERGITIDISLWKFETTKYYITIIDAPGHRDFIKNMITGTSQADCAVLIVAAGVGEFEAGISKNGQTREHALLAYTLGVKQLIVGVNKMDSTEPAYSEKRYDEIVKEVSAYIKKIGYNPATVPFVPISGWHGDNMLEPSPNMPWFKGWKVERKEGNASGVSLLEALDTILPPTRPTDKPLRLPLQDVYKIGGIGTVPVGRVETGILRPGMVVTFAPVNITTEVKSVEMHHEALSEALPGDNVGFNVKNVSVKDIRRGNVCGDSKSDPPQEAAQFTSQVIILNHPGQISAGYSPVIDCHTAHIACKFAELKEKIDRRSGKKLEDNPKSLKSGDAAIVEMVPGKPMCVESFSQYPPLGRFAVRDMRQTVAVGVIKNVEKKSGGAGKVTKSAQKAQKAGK

GAK = biological target: T2, GAK (Homo sapiens, UniProt O14976); test: Kinobead selectivity profiling; type: biochemical; settings: read-out: K ^app; apparent value; off-target of ERK inhibitor
T2 sequence (O14976 2-1311): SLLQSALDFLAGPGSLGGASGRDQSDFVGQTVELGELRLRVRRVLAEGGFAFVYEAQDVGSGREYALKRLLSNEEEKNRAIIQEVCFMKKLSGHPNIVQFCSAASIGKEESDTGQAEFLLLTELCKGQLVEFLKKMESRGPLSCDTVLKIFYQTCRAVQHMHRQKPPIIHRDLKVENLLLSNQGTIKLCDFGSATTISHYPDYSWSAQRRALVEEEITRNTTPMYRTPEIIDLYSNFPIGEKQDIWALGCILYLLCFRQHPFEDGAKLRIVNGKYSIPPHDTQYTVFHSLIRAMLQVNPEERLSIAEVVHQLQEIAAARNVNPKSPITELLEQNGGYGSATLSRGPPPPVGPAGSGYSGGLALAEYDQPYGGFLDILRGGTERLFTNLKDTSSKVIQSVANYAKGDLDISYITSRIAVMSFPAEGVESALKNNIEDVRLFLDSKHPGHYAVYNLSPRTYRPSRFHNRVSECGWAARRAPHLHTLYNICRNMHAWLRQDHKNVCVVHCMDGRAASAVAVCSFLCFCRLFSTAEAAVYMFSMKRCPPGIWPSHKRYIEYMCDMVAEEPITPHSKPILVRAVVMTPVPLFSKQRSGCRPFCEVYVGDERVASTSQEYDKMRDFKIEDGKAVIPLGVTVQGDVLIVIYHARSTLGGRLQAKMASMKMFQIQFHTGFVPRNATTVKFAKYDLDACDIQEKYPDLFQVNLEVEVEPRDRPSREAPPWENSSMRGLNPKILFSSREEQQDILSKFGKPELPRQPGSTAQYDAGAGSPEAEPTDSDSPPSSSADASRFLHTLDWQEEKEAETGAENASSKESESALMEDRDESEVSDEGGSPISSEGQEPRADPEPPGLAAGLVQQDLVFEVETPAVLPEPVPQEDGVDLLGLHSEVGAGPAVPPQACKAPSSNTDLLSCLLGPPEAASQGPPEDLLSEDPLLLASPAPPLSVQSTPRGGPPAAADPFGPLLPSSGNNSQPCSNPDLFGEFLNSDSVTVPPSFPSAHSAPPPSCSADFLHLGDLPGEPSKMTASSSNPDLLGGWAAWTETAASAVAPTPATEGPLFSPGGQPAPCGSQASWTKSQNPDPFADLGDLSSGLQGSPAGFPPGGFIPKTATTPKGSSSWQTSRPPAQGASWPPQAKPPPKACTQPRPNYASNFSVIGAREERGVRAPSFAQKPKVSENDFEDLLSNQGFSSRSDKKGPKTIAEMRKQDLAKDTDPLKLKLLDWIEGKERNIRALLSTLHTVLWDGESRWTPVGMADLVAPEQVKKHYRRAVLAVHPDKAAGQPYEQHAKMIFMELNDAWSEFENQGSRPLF

AAK1 = AAK1 (Homo sapiens, UniProt Q2M2I8); test: Kinobead selectivity profiling; type: biochemical; settings: read-out: K ^app; apparent value; off-target of ERK inhibitor
Chain of AAK1 (Q2M2I8 whole entry): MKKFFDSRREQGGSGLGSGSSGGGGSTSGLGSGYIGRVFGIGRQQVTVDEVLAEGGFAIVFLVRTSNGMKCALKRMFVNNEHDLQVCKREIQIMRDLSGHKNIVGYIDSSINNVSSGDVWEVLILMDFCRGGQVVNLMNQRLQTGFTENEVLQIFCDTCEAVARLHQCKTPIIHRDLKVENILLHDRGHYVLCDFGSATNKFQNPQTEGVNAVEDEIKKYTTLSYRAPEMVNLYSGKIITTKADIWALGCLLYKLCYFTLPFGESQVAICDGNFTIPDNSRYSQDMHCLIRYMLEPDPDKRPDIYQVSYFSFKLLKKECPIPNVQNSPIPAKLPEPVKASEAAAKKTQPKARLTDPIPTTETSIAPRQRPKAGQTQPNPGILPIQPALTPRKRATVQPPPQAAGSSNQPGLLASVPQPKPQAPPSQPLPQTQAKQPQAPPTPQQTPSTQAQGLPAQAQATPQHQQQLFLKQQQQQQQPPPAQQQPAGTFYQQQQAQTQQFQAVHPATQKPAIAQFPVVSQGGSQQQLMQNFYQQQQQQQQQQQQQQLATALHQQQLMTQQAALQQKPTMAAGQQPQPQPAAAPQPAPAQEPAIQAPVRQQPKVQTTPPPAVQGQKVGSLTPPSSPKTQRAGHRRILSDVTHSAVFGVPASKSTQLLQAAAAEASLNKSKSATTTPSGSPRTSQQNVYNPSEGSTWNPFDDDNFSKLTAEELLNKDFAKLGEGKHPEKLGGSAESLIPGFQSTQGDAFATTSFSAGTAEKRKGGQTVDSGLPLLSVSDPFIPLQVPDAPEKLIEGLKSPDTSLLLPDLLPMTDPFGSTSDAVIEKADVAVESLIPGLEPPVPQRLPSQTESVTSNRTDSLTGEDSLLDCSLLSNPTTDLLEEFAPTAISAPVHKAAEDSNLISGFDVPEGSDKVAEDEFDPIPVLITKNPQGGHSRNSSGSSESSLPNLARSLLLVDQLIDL

| EC50 (EEF1A2) [nM] | Kd (GAK) [nM] | Kd (AAK1) [nM] | SMILES |
| --- | --- | --- | --- |
| 1000 to 3000 |  |  | C=C(F)C(=O)N1CCN(c2nc(OC[C@@H]3CCCN3C)nc3c2CCN(c2cccc4cccc(Cl)c24)C3)C[C@@H]1CC#N [Adagrasib] |
|  | 155 | 11 | Cn1nccc1Nc1nccc(-c2cc3c(s2)C(C)(C)N(CCN2CCOCC2)C3=O)n1 [Temuterkib] |
